Laboratory results as given in PMC6150365, “Simultaneous Determination of Seven Components in Rat Plasma by the UPLC-MS/MS Method and Application of Pharmacokinetic Studies to SimiaoYong’an Decoction” (Molecules : A Journal of Synthetic Chemistry and Natural …, 2017).

Assay: Pharmacokinetic study in rats after oral administration of SYD extract and its single and combined TCM extracts (UPLC-MS/MS of plasma)
Conditions: male, Sprague-Dawley, rat, plasma, po, n = 6; for AUC(0-inf) / Cmax / MRT last / MRT inf / Tmax / AUC(0-t): rat plasma; for MRT last: MRT(0–t); for MRT inf: MRT(0–∞); for half-life: t1/2, rat plasma
[1] = 2.14 g·kg^−1 (extract), oral LJ + GU extract
[2] = 2.15 g/kg, oral LJ extract 2.15 g/kg
[3] = 3.29 g·kg^−1 (extract), oral LJ + AS extract
[4] = 3.29 g·kg^−1 extract, oral LJ + AS extract
[5] = 4.01 g·kg^−1 (extract), oral LJ + AS + GU extract
[6] = 4.5 g·kg^−1 (extract), oral LJ + SN extract
[7] = 4.5 g·kg^−1 extract, oral LJ + SN extract
[8] = 4.73 g/kg, oral LJ + SN + GU extract 4.73 g/kg
[9] = 5.43 g/kg, oral LJ + SN + AS extract 5.43 g/kg
[10] = 8.25 g/kg, oral SYD extract 8.25 g/kg

AUC(0-inf) [1]: 5.51 ± 2 µg·h/mL
Cmax [1]: 0.69 ± 0.44 µg/mL
MRT last [1]: 8.17 ± 0.62 h
MRT inf [1]: 88.5 ± 42.1 h
Tmax [1]: 1.25 ± 0.59 h
half-life [1]: 8.07 ± 3.65 h
AUC(0-t) (2.14 g·kg^−1 extract, oral LJ + GU extract): 1.6 ± 0.07 µg·h/mL
AUC(0-t) [2]: 1.52 ± 0.11 µg·h/mL
AUC(0-inf) [2]: 1.67 ± 0.34 µg·h/mL
Cmax [2]: 1.14 ± 0.52 µg/mL
MRT last [2]: 3.65 ± 1.03 h
MRT inf [2]: 6.74 ± 6 h
Tmax [2]: 1.25 ± 0.59 h
half-life [2]: 6.71 ± 4.19 h
Cmax [3]: 0.66 ± 0.35 µg/mL
MRT last [3]: 7.93 ± 1.33 h
MRT inf [3]: 80.9 ± 41.5 h
Tmax [3]: 1.33 ± 0.52 h
half-life [3]: 7.89 ± 2.42 h
AUC(0-t) [4]: 1.72 ± 0.31 µg·h/mL
AUC(0-inf) [4]: 5.4 ± 1.94 µg·h/mL
AUC(0-t) [5]: 1.66 ± 0.12 µg·h/mL
AUC(0-inf) [5]: 5.35 ± 1.94 µg·h/mL
Cmax [5]: 0.54 ± 0.17 µg/mL
MRT last [5]: 8.06 ± 0.78 h
MRT inf [5]: 81.9 ± 41.3 h
Tmax [5]: 1.5 ± 0.45 h
half-life [5]: 7.91 ± 2.17 h
MRT last [6]: 7.79 ± 1.38 h
MRT inf [6]: 80 ± 40.2 h
Tmax [6]: 1.54 ± 0.56 h
half-life [6]: 9.39 ± 2.6 h
AUC(0-t) [7]: 1.79 ± 0.44 µg·h/mL
AUC(0-inf) [7]: 5.47 ± 2.06 µg·h/mL
Cmax [7]: 0.68 ± 0.1 µg/mL
AUC(0-t) [8]: 1.84 ± 0.45 µg·h/mL
AUC(0-inf) [8]: 5.51 ± 2.02 µg·h/mL
Cmax [8]: 0.72 ± 0.45 µg/mL
MRT last [8]: 7.72 ± 1.48 h
MRT inf [8]: 79.3 ± 40.8 h
Tmax [8]: 1.5 ± 0.45 h
half-life [8]: 6.83 ± 2.11 h
AUC(0-t) [9]: 1.16 ± 0.78 µg·h/mL
AUC(0-inf) [9]: 1.18 ± 0.77 µg·h/mL
Cmax [9]: 0.66 ± 0.483 µg/mL
MRT last [9]: 2.5 ± 0.7 h
MRT inf [9]: 4.07 ± 3.93 h
Tmax [9]: 1.5 ± 0.45 h
half-life [9]: 6.25 ± 4.29 h
AUC(0-t) [10]: 1.98 ± 1.38 µg·h/mL
AUC(0-inf) [10]: 2.17 ± 1.4 µg·h/mL
Cmax [10]: 0.77 ± 0.46 µg/mL
MRT last [10]: 4.71 ± 1.34 h
MRT inf [10]: 8.87 ± 8.1 h
half-life [10]: 7.45 ± 3.39 h
Compound: COC(=O)C1=CO[C@@H](O[C@@H]2O[C@H](CO)[C@@H](O)[C@H](O)[C@H]2O)[C@@H]2[C@@H](C)[C@@H](O)C[C@H]12 [Loganin, loganin]
